Results reported in article PMC4893642 (Theranostics, 2016).
Values joined by “and” are separate entries in the source; they are usually repeats but may differ in a detail not shown here. Equal entries are not always repeated.

Key:
[1] = target: CB2 receptors (Homo sapiens, UniProt P34972); test: CB2 agonist/antagonist test; assay type: cell-based; conditions: at concentrations up to 30 µM
[2] = Ex vivo whole body biodistribution in mice
[3] = target: CB1 receptors (Homo sapiens, UniProt P21554); test: CB1 agonist/antagonist test; assay type: cell-based; conditions: at concentrations up to 30 µM
CB1 receptors, sequence (P21554 whole entry): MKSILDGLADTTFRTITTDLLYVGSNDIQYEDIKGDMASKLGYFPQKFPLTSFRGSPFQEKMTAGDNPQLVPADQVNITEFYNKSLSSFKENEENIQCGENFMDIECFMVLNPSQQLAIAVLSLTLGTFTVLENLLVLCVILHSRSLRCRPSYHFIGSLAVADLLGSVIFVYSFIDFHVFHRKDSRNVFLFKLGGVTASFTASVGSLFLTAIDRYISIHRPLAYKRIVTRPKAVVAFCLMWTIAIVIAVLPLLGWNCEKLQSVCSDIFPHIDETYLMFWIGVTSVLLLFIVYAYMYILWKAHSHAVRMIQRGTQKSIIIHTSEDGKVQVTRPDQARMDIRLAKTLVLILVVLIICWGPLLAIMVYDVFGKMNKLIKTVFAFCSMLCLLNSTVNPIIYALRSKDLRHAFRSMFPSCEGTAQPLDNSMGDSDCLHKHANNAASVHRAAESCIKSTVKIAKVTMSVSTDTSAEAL

[4] = target: T1, MAGL (Rattus norvegicus, UniProt Q8R431); conditions: 30 min i.v. before injection
T1 sequence (Q8R431 1-303): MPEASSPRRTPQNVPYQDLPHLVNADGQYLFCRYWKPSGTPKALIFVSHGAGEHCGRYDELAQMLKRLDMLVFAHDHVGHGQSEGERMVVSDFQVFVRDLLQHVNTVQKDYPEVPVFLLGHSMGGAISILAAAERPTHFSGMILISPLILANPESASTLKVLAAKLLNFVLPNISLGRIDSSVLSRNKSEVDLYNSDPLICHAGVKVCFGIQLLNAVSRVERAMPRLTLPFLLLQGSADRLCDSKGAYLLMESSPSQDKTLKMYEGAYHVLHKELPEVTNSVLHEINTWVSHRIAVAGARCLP

[5] = target: T2, FAAH (Homo sapiens, UniProt O00519); test: In vitro FAAH inhibition enzyme assay; assay type: biochemical; conditions: read-out: inhibition of FAAH enzyme
T2 sequence (O00519 1-579): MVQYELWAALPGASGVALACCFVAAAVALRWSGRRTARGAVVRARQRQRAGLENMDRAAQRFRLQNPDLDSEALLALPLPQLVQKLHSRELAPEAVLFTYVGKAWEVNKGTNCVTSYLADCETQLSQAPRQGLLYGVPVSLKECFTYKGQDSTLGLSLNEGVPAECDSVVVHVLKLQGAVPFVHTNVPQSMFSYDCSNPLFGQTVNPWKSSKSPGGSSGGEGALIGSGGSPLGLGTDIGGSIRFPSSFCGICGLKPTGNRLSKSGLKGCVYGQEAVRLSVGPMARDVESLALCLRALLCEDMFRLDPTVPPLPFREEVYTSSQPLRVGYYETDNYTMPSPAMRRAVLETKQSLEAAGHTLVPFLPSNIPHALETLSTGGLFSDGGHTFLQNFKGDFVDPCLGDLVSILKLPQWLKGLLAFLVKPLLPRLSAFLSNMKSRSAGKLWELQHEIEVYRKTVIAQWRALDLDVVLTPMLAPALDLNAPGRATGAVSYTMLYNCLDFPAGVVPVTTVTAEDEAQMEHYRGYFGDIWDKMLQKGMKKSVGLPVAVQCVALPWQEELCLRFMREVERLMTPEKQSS

[6] = target: T3, human recombinant MAGL (Homo sapiens, UniProt Q99685); test: In vitro MAGL inhibition enzyme assay; assay type: biochemical; conditions: 4-nitrophenylacetate substrate
T3 sequence (Q99685 1-303): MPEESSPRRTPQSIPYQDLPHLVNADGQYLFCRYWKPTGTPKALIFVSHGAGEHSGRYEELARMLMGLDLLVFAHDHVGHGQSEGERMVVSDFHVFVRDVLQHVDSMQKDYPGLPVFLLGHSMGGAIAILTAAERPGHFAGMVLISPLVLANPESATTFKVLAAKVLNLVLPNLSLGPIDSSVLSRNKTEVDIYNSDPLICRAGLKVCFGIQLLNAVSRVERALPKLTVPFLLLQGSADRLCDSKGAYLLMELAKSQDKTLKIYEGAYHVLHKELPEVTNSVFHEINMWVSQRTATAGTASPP

CB2 receptors, sequence (P34972 whole entry): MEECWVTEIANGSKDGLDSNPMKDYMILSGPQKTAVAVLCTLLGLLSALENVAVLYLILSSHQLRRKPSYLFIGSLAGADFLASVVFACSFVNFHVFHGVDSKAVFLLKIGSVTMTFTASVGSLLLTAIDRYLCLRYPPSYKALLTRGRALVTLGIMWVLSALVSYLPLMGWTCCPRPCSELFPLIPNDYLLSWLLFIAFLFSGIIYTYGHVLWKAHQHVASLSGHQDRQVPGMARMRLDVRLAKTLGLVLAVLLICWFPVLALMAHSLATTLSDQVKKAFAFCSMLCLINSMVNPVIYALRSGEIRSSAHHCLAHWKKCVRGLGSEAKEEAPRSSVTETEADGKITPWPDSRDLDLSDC

| Compound | CB2 receptor agonism or antagonism [1] | uptake in the liver, kidneys and small intestine [2] | CB1 receptor agonism or antagonism [3] | reduction of [11C]5f uptake in cerebellum by pretreatment ([4]; rat, blocker 1 mg/kg) [%] | reduction of [11C]5f uptake in cerebral cortex by pretreatment ([4]; rat, blocker 1 mg/kg) [%] | reduction of [11C]5f whole brain uptake by pretreatment ([4]; rat, blocker 1 mg/kg) [%] | inhibition at 0.5 µM [5] [%] | IC50 [6] | effect on [11C]SAR127303 uptake and distribution in rat brain ([4]; blocker 3 mg/kg) |
| --- | --- | --- | --- | --- | --- | --- | --- | --- | --- |
| O=C(N1CCC(CNS(=O)(=O)c2ccc(Cl)cc2)CC1)n1cncn1 [Compound 5f, N-((1-(1H-1,2,4-triazole-1-carbonyl)piperidin-4-yl)methyl)-4-chlorobenzenesulfonamide] | No significant CB1 and CB2 receptors agonism or antagonism | High uptake | No significant CB1 and CB2 receptors agonism or antagonism | 53 | 42 | 48 | 75 | 39.3 nM and 35.9 nM |  |
| O=C(OC(C(F)(F)F)C(F)(F)F)N1CCC(CNS(=O)(=O)c2ccc(Cl)cc2)CC1 [Compound 5a, 1,1,1,3,3,3-hexafluoropropan-2-yl 4-(((4-chlorophenyl)sulfonamido)methyl)piperidine-1-carboxylate] | No significant CB1 and CB2 receptors agonism or antagonism | High uptake | No significant CB1 and CB2 receptors agonism or antagonism |  |  |  |  |  |  |
| NC(=O)c1cccc(-c2cccc(OC(=O)NC3CCCCC3)c2)c1 [URB597, reference compound] |  |  |  |  |  |  |  |  | no effect on the uptake and distribution in rat brain |
